According to PubChem BioAssay (NCI):
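Briefly, cells in 96-well plates were exposed to five compound concentrations for 48 h, and endpoints were estimated by linear interpolation. Here, GI50 denotes the concentration required for 50% inhibition of growth. Definition used: TGI = concentration required for complete inhibition of growth.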

How the values were obtained:
Experiment in all cases: NCI tumour cell line growth inhibition, 48 h
HL-60(TB) leukemia = test system: HL-60(TB) leukemia
SW-620 colon = test system: SW-620 colon
T-47D breast = test system: T-47D breast
UO-31 renal = test system: UO-31 renal
CAKI-1 renal = test system: CAKI-1 renal
SNB-19 CNS = test system: SNB-19 CNS
MDA-MB-231 breast = test system: MDA-MB-231 breast
SF-539 CNS = test system: SF-539 CNS
MDA-MB-435 = test system: MDA-MB-435
U251 CNS = test system: U251 CNS

SMILES | TGI (HL-60(TB) leukemia) | TGI (SW-620 colon) | TGI (T-47D breast) | TGI (UO-31 renal) | TGI (CAKI-1 renal) | TGI (SNB-19 CNS) | TGI (MDA-MB-231 breast) | TGI (SF-539 CNS) | TGI (MDA-MB-435) | TGI (U251 CNS) | GI50 (HL-60(TB) leukemia) | GI50 (SW-620 colon) | GI50 (UO-31 renal) | GI50 (CAKI-1 renal) | GI50 (MDA-MB-231 breast) | GI50 (SF-539 CNS) | GI50 (MDA-MB-435) | GI50 (U251 CNS)
O=C(Nc1nnc(-c2ccccc2)o1)C(SC(=S)N1CCOCC1)c1ccccc1 (configuration not stated) | 36.3 µM | > 100 µM | > 100 µM | > 100 µM | > 100 µM | > 100 µM | > 100 µM | > 100 µM | > 100 µM | > 100 µM | – | – | – | – | – | – | – | –
O=C1CCC2(CC1CCSc1ccccc1)OCCO2 (configuration not stated) | > 100 µM | > 100 µM | > 100 µM | > 100 µM | > 100 µM | > 100 µM | > 100 µM | > 100 µM | > 100 µM | > 100 µM | – | – | – | – | – | – | – | –
Cc1cccc2nc3cccc(C(=O)NCCC[N+](C)(CCCNC(=O)c4cccc5nc6cccc(C)c6nc45)Cc4c([N+](=O)[O-])ncn4C)c3nc12 | – | > 1100 µM | > 1100 µM | > 1100 µM | > 1100 µM | > 1100 µM | > 1100 µM | 9.07 µM | > 1100 µM | > 1100 µM | 48.6 µM | 49.3 µM | 48.7 µM | 107 µM | > 1100 µM | 1.59 µM | 191 µM | 18.2 µM
CC1(C)CN(c2ccccc2)C(=O)C1OC(=O)[C@@]1(C)C[C@@H]2C=C[C@H]1C2 (some centres not stated) | 46.3 µM | > 100 µM | 73.2 µM | 30.8 µM | 61.5 µM | 65.5 µM | 79.3 µM | 52.9 µM | 42 µM | 43.9 µM | – | – | – | – | – | – | – | –
COC(=O)/C=C\C(C#N)(C#N)N=Cc1ccc(C)s1 | 5.16 µM | 2.14 µM | 3.92 µM | 3.53 µM | 4.78 µM | 32.8 µM | 18.3 µM | 10.1 µM | 7.65 µM | 28.8 µM | – | – | – | – | – | – | – | –
CCCn1c(=O)c2ccccc2[n+]2c(-c3ccc([N+](=O)[O-])cc3)csc12 | 57.9 µM | > 100 µM | > 100 µM | 97.3 µM | > 100 µM | > 100 µM | > 100 µM | 49.2 µM | > 100 µM | > 100 µM | – | – | – | – | – | – | – | –
O=C(OCCN1CCCCC1)C(c1ccccc1)C1(O)CCSCC1 (configuration not stated) | > 100 µM | > 100 µM | > 100 µM | > 100 µM | > 100 µM | > 100 µM | > 100 µM | > 100 µM | > 100 µM | > 100 µM | – | – | – | – | – | – | – | –
COc1ccc2c(c1)nc1n2C(N)=Nc2ccccc2S1 | 6.95 µM | > 100 µM | > 92.3 µM | > 100 µM | > 100 µM | > 100 µM | > 100 µM | > 100 µM | > 100 µM | > 100 µM | – | – | – | – | – | – | – | –
Cc1cc(Nc2ccc(N=Nc3ccc(O)c4ncccc34)cc2)nc(C)n1 | 16.5 µM | > 66.5 µM | 35.6 µM | 36.5 µM | 71 µM | > 100 µM | 73.7 µM | 20.6 µM | 29.6 µM | 33.4 µM | – | – | – | – | – | – | – | –
CC(C)(C)n1c(=O)n(C(=O)C(Cl)(Cl)Cl)n(C(=O)C(Cl)(Cl)Cl)c1=O | > 100 µM | > 100 µM | > 100 µM | > 100 µM | > 100 µM | > 100 µM | > 100 µM | > 100 µM | > 100 µM | > 100 µM | – | – | – | – | – | – | – | –
COc1c(OC)c(O)c2c(=O)c(OC)c(-c3ccc4c(c3)OCO4)oc2c1O | > 100 µM | > 100 µM | > 100 µM | > 100 µM | > 100 µM | > 100 µM | > 100 µM | > 100 µM | > 100 µM | > 100 µM | – | – | – | – | – | – | – | –
O=C(NC1(C(=O)NNc2nnc(-c3ccccc3)c(-c3ccccc3)n2)C(c2ccccc2)C(c2ccccc2)=NN1c1ccccc1)c1ccccc1 (configuration not stated) | > 100 µM | > 100 µM | > 100 µM | > 100 µM | > 100 µM | > 100 µM | > 100 µM | > 100 µM | > 100 µM | > 100 µM | – | – | – | – | – | – | – | –
COc1ccc(-c2nc(-c3cc4ccccc4oc3=O)cs2)cc1 | > 100 µM | > 100 µM | > 100 µM | > 100 µM | > 100 µM | > 100 µM | 53.8 µM | > 100 µM | > 100 µM | 47.4 µM | – | – | – | – | – | – | – | –
